In US20250188079A1, “INHIBITING CYCLIC AMP-RESPONSIVE ELEMENT-BINDING PROTEIN (CREB)” (Forma Therapeutics, Inc., priority 2019, published 2025):

Biological target: CBP (Homo sapiens (Human), UniProt Q92793)
Experiment: HTRF biochemical assay for CBP activity (TR-FRET, bromodomain)
Type: binding
Settings: geometric mean, 10-point 3-fold dilution 33 μM to 1.7 nM, read-out: BROMO IC50 TRF TB CBP (μM gmean)
Method: Example 1: HTRF Biochemical Assay for CBP Activity
The assay was performed in a final volume of 6 μL in assay buffer containing 50 mM Hepes (pH 7.5, (0.5M Hepes, pH 7.5 solution; Teknova H1575)), 0.5 mM GSH, 0.01% BGG (0.22 p M filtered, Sigma, G7516-25G), 0.005% BSA (0.22 μM filtered, EMD Millipore Corporation, 126575) and 0.01% Triton X-100 (Sigma, T9284-10L). Nanoliter quantities of 10-point, 3-fold serial dilution in DMSO were pre-dispensed into 1536 assay plates (Corning, #3724BC) for a final test concentration of 33 μM to 1.7 nM, top to lowest dose, respectively. 3 μL of 2×Protein and 3 μL of 2×Peptide Ligand were added to assay plates (pre-stamped with compound). Plates were incubated for varying times at room temperature prior to measuring the signal. TR-FRET (Time-Resolved Fluorescence Resonance Energy Transfer) was measured on the PHERAstar (BMG, equipped with HTRF optic module [337/520/490]) or on the Envision (PerkinElmer, equipped with the TRF Laser unit, TRF dual mirror D400/D505 and emission filters M520 and M495). Data were reported as percent inhibition compared with control wells based on the following equation: % inh=1−((TR-FRET ratio−AveLow)/(AveHigh−AveLow)) where TR-FRET ratio=(Fluorescence at 520 nm/Fluorescence at 490 nm)*10000), AveLow=average TR-FRET ratio of no enzyme control (n=32), and AveHigh=average TR-FRET ratio of DMSO control (n=32). IC50 values were determined by curve fitting of the standard 4 parameter logistic fitting algorithm included in the Activity Base software package: IDBS XE Designer Model205. Data is fitted using the Levenburg Marquardt algorithm. As set forth in Table 2 below, an IC50 value of greater than or equal to 0.001 μM and less than or equal to 0.01 μM is marked “++++”; a value greater than 0.01 μM and less than or equal to 0.1 μM is marked “+++”; a value greater than 0.1 μM and less than or equal to 1 μM is marked “++”; and a value greater than 1 μM and less than 1000 μM is marked “+.” Compounds that were not tested in a particular assay are marked “NT.”

Sequence of CBP (Q92793 1085-1192): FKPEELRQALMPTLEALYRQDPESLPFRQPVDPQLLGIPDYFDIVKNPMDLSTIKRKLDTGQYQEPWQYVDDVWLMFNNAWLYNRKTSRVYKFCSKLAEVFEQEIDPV

SMILES	IC50
COC(=O)N1CCc2c(C#N)cc3c(nc([C@H]4CC[C@H](C(=O)O)CC4)n3[C@@H](C)Cc3ccccc3)c2C1 [Compound 52]	0.001 to 0.01 µM
COC(=O)N1CCc2ccc3c(nc([C@H]4CCCOC4)n3C[C@H](C(=O)O)c3ccc(C)cc3)c2C1 [Compound 53]	0.001 to 0.01 µM
COC(=O)N1CCc2ccc3c(nc(N4CCN(C(=O)O)CC4)n3[C@H](C)Cc3ccccc3)c2C1 [Compound 54]	0.001 to 0.01 µM
COC(=O)N1CCc2ccc3c(nc(C4CCCC4)n3C[C@H](C(=O)O)c3ccccc3)c2C1 [Compound 55]	0.001 to 0.01 µM
COC(=O)N1CCc2c(Cl)cc3c(nc(C4CCCCC4)n3C[C@@H](C(=O)O)c3ccccc3)c2C1 [Compound 56]	0.001 to 0.01 µM
COC(=O)N1CCc2ccc3c(nc([C@H]4CC[C@H](C(=O)O)CC4)n3[C@@H](C)C[C@]3(C)CC[C@H](OC)CC3)c2C1 [Compound 57]	0.001 to 0.01 µM
COC(=O)N1CCc2ccc3c(nc([C@H]4CCCOC4)n3C[C@@H](C(=O)O)c3ccc(C)cc3)c2C1 [Compound 58]	0.001 to 0.01 µM
COC(=O)N1CCc2ccc3c(nc([C@H]4CC[C@@H](C(=O)O)C4)n3[C@H](C)Cc3ccccc3C)c2C1 [Compound 59]	0.001 to 0.01 µM
COC(=O)N1CCc2ccc3c(nc([C@H]4CCCOC4)n3C[C@@H](C(=O)O)c3ccccc3)c2C1 [Compound 61]	0.001 to 0.01 µM
COC(=O)N1CCc2ccc3c(nc(C4CCN(C(C)=O)CC4)n3C[C@@H](C(=O)O)c3ccccc3)c2C1 [Compound 62]	0.001 to 0.01 µM
COC(=O)N1CCc2ccc3c(nc(N4CCC(C(=O)O)CC4)n3[C@@H](C)Cc3ccccc3C)c2C1 [Compound 63]	0.001 to 0.01 µM
COC(=O)N1CCc2ccc3c(nc([C@H]4CC[C@@H](OC)CC4)n3C[C@@H](C(=O)O)c3ccccc3)c2C1 [Compound 64]	0.001 to 0.01 µM
COC(=O)N1CCc2ccc3c(nc([C@H]4CC[C@H](C(=O)O)CC4)n3[C@@H](C)Cc3ccc4c(c3)CCO4)c2C1 [Compound 65]	0.001 to 0.01 µM
COC(=O)N1CCc2ccc3c(nc(N4CCN(S(C)(=O)=O)CC4)n3[C@@H](C)Cn3cc(Cl)cn3)c2C1 [Compound 66]	0.001 to 0.01 µM
COC(=O)N1CCc2c(C(=O)O)cc3c(nc(C4CCCCC4)n3[C@@H](C)Cc3ccccc3)c2C1 [Compound 67]	0.001 to 0.01 µM
COC(=O)N1CCc2ccc3c(nc([C@H]4CC[C@H](C(=O)O)CC4)n3[C@H](C)C[C@H]3CC[C@@H](OC)CC3)c2C1 [Compound 68]	0.001 to 0.01 µM

SMILES	IC50
COC(=O)N1CCc2ccc3c(nc([C@H]4CC[C@H](C(=O)O)CC4)n3[C@@H](C)Cc3ccc(OC(F)F)cc3)c2C1 [Compound 69]	0.001 to 0.01 µM
COC(=O)N1CCc2ccc3c(nc(C4CCCCC4)n3C[C@H](CC(=O)O)c3ccc(F)c(F)c3)c2C1 [Compound 70]	0.001 to 0.01 µM
COC(=O)N1CCc2ccc3c(nc([C@H]4CC[C@H](C(=O)O)CC4)n3[C@@H](C)Cc3cccc(F)c3F)c2C1 [Compound 71]	0.001 to 0.01 µM
COC(=O)N1CCc2ccc3c(nc([C@H]4CC[C@H](C(=O)O)CC4)n3[C@@H](C)Cc3ccccc3)c2C1 [Compound 72]	0.001 to 0.01 µM
COC(=O)N1CCc2ccc3c(nc(N4CCC(C(=O)O)CC4)n3[C@@H](C)Cn3cc(Cl)cn3)c2C1 [Compound 73]	0.001 to 0.01 µM
COC(=O)N1CCc2ccc3c(nc([C@H]4CC[C@H](C(=O)O)CC4)n3[C@@H](CO)Cc3ccc(F)c(F)c3)c2C1 [Compound 74]	0.001 to 0.01 µM
COC(=O)N1CCc2ccc3c(nc(N4CCC(C)(C(=O)O)CC4)n3[C@@H](C)Cc3ccccc3)c2C1 [Compound 75]	0.001 to 0.01 µM
COC(=O)N1CCc2ccc3c(nc(C4CCCCC4)n3C[C@@H](CC(=O)O)c3cc(F)cc(F)c3)c2C1 [Compound 76]	0.001 to 0.01 µM
COC(=O)N1CCc2ccc3c(nc(-c4ccc(C(=O)O)cc4)n3[C@@H](C)Cc3ccccc3)c2C1 [Compound 77]	0.001 to 0.01 µM
COC(=O)N1CCc2ccc3c(nc(-c4ccc(CC(=O)O)cc4)n3[C@@H](C)Cc3ccccc3)c2C1 [Compound 78]	0.001 to 0.01 µM
COC(=O)N1CCc2ccc3c(nc(N4CCN(C(=O)C5COC5)CC4)n3[C@H](C)Cc3ccccc3)c2C1 [Compound 79]	0.001 to 0.01 µM
COC(=O)N1CCc2ccc3c(nc(N4CCN(S(C)(=O)=O)CC4)n3[C@@H](C)Cc3ccccc3)c2C1 [Compound 80]	0.001 to 0.01 µM
COC(=O)N1CCc2c(Cl)cc3c(nc([C@H]4CC[C@H](C(=O)O)CC4)n3[C@@H](C)Cc3ccccc3)c2C1 [Compound 81]	0.001 to 0.01 µM
COC(=O)N1CCc2ccc3c(nc(N4CCC[C@@H](C(=O)O)C4)n3[C@@H](C)Cc3ccccc3)c2C1 [Compound 82]	0.001 to 0.01 µM
COC(=O)N1CCc2ccc3c(nc(C4CCCCC4)n3C[C@H]3CC[C@H](C(=O)O)CC3)c2C1 [Compound 83]	0.001 to 0.01 µM
COC(=O)N1CCc2ccc3c(nc(C4CCC(C(=O)O)CC4)n3CCc3ccccc3)c2C1 (stereo not drawn) [Compound 84]	0.001 to 0.01 µM

Next, values leading:

IC50	SMILES
0.001 to 0.01 µM	COC(=O)N1CCc2ccc3c(nc([C@H]4CC[C@H](C(=O)O)CC4)n3[C@@H](C)Cn3cc(Cl)cn3)c2C1 [Compound 85]
0.001 to 0.01 µM	COC(=O)N1CCc2ccc3c(nc([C@H]4CC[C@H](C(=O)O)CC4)n3Cc3ccc4c(c3)OCC4)c2C1 [Compound 86]
0.001 to 0.01 µM	COC(=O)N1CCc2ccc3c(nc(C4CCCCC4)n3CC[C@H]3CC[C@@H](C(=O)O)CC3)c2C1 [Compound 87]
0.001 to 0.01 µM	COC(=O)N1CCc2ccc3c(nc([C@H]4CC[C@H](C(=O)O)CC4)n3[C@@H](C)Cn3ncc4ccccc43)c2C1 [Compound 88]
0.001 to 0.01 µM	COC(=O)N1CCc2ccc3c(nc([C@H]4CCCOC4)n3C[C@H](C(=O)O)c3ccccc3)c2C1 [Compound 89]
0.001 to 0.01 µM	COC(=O)N1CCc2c([C@@H]3CCOC3)cc3c(nc([C@H]4CC[C@H](C(=O)O)CC4)n3CCc3ccccc3)c2C1 [Compound 90]
0.001 to 0.01 µM	COC(=O)N1CCc2ccc3c(nc(C4CCCCC4)n3[C@H](C)C[C@@H]3CCCC[C@@H]3C(=O)O)c2C1 [Compound 91]
0.001 to 0.01 µM	COC(=O)N1CCc2ccc3c(nc([C@H]4CC[C@H](C(=O)O)CC4)n3[C@@H](C)[C@@H](O)c3ccccc3)c2C1 [Compound 92]
0.001 to 0.01 µM	COC(=O)N1CCc2ccc3c(nc([C@H]4CC[C@H](C(=O)O)CC4)n3[C@@H](C)Cc3ccc(C)cc3)c2C1 [Compound 93]
0.001 to 0.01 µM	COC(=O)N1CCc2ccc3c(nc([C@H]4CC[C@H](C(=O)O)CC4)n3Cc3ccc(OC)c(F)c3)c2C1 [Compound 94]
0.001 to 0.01 µM	COC(=O)N1CCc2ccc3c(nc([C@H]4CC[C@H](C(=O)O)CC4)n3[C@H](C)Cc3c(F)cccc3F)c2C1 [Compound 95]
0.001 to 0.01 µM	COC(=O)N1CCc2ccc3c(nc([C@H]4CC[C@H](S(=O)(=O)NC(C)=O)CC4)n3[C@@H](C)Cc3ccccc3)c2C1 [Compound 96]
0.001 to 0.01 µM	COC(=O)N1CCc2ccc3c(nc([C@H]4CC[C@H](S(N)(=O)=O)CC4)n3[C@@H](C)Cc3ccccc3)c2C1 [Compound 97]
0.001 to 0.01 µM	COC(=O)N1CCc2ccc3c(nc(C4CCCCC4)n3C[C@@H](CC(=O)O)c3ccccc3C)c2C1 [Compound 98]
0.001 to 0.01 µM	COC(=O)N1CCc2ccc3c(nc([C@H]4CC[C@H](C(=O)O)CC4)n3[C@@H](C)Cc3cccc(C)c3)c2C1 [Compound 100]
0.001 to 0.01 µM	COC(=O)N1CCc2ccc3c(nc(-c4cccc(CC(=O)O)c4)n3[C@@H](C)Cc3ccccc3)c2C1 [Compound 101]
